Experimental findings from patent publication US8604214B2, “Compounds for alleviation, prevention or treatment of osteoporosis, the preparation thereof and pharmaceutical composition comprising the same” (Ewha University-Industry Collaboration Foundation, priority 2011, dated 2013) are described below.

Common to all, as to assay type: cell-based, ICR mice
Assay [1] relates to osteoclast-specific marker genes (calcitonin receptor, cathepsin K, αv-integrin, β3-integrin, ATP6v0d2, DC-STAMP). Briefly: RT-PCR of osteoclast-specific marker genes. The following applies: R+K11: 50 ng/ml RANKL following pretreatment with 10 μM K11 for 30 minutes, compared to RANKL; FIG. 3A. The procedure: Total RNA isolation was conducted using Easy-blue (Intron Biochemistry, Inc.). cDNA was synthesized from […] of the total RNA using an oligodT primer and 10 mM dNTP, 1 unit of an RNase inhibitor and 4 units of Scrip reverse transcriptase (Fermentas, Life science) at 42° C. for 60 min, followed by termination by heating at 70° C. for 10 min.
(§1) In FIG. 3, Veh represents a control group treated with DMSO, RANKL represents a group treated with 50 ng/ml RANKL, K11 represents a group treated with 10 μM K11, R+K11 represents a group treated with 50 ng/ml RANKL following pretreatment with 10 μM K11 for 30 minutes, while * represents p<0.05 compared to Veh and ** represents *: p<0.05 compared to RANKL. N.D.=Not Detectable. FIG. 3A is graphs showing analyzed results of reverse transcription polymerase chain reaction (RT-PCR) performed for measurement of expression levels of osteoclast-specific marker genes (calcitonin receptor, cathepsin K, αv-integrin, β3-integrin, ATP6v0d2, DC-STAMP), FIG. 3B is a view of result of pits formed on dentine slices by bone absorption according to treatment with K11 compound and FIG. 3C is a graph showing analyzed results of the experiment results obtained in FIG. 3B. […]

The test system of assay [2] is c-fos. Briefly: Western blot analysis of c-fos expression. The following applies: 200 ng/ml RANKL following pretreatment with 10 μM K11 for 30 minutes; FIG. 5. Here is the method:
(§2) After BMM cells treated with reagent were incubated for a predetermined period of time, the BMM cell were lysed in a lysis buffer and centrifuged. Following normalization to BSA (bovine serum albumin) standards, protein concentrations were quantitatively analyzed using a protein assay kit (Bio-Rad). Twenty micrograms of the protein was denatured and separated by SDS-PAGE (poly acrylamide gel electrophoresis) and transferred for 1 hour and 45 minutes onto a PVDF membrane in 80 V. Subsequently, the membrane was blocked with PBST (Phosphate Buffered Saline Tween-20) containing 5% skim milk, followed by reaction with anti-NFATc1 (Nuclear factor of activated T-cells cytoplasmic 1, 1:200, Santa Cruz) antibody or anti-c-fos (1:1000, Cell Signaling) antibody as a primary antibody, respectively (1:200 ratio herein indicated means dilution of 200 times). After the membrane was washed five times with TBST and reacted with HRP (horseradish peroxidase)-conjugated secondary antibody, the protein was visualized using ECL Advance (Amersham Co.) and analyzed.
(§3) In FIGS. 4 and 5, veh represents a control group treated with DMSO, RANKL represents a group treated with 200 ng/ml RANKL, R+K11 represents a group treated with 200 ng/ml RANKL following pretreatment with 10 μM K11 for 30 minutes, while * represents p<0.05 compared to Veh and ** represents *: p<0.05 compared to RANKL.
A general note: A western blot detects proteins with antibodies after separation by electrophoresis.

For assay [3], the system named is bone marrow cells (BMM), TRAP-positive multinucleated osteoclasts. Briefly: RANKL-induced osteoclast differentiation of BMM, TRAP staining. The following applies: Mus musculus, 96 h, RANKL and 30 ng/ml M-CSF, 4 days, TRAP-positive cells having 3 or more nuclei, read-out: IC50 (μM), multinucleated osteoclast formation. From the text: ICR mice (6˜9 weeks old, male) were sacrificed by cervical dislocation, followed by immersion in 70% ethanol for sterilization. Dissection was made on the tibia skin to remove the muscle attached thereto. The tibia was excised by cutting the distal tibia and dislocating the patella. The tibia were then cut slightly at their opposite ends. A 25-gauge (G) syringe needle was inserted into the bone at one end and α-MEM (Minimum Essential Medium) was infused into the bone through the needle to collect bone marrow cells.
After centrifugation, a cell pellet was suspended in α-MEM and red blood cells in the suspension were removed with two volumes of Gey's solution. After centrifugation, the cell pellet was resuspended in α-MEM supplemented with 10% FBS.
After a primary culture of the bone marrow cells, the bone marrow cells were incubated overnight in 10 ng/ml M-CSF (macrophage colony-stimulating factor) and then for an additional three days in 30 ng/ml M-CSF. After Adhesive cells (BMM) were recovered, ng/ml RANKL and 30 ng/ml M-CSF or ng/ml RANKL, 30 ng/ml M-CSF in combination with various concentrations of the K11, K14, K17, K18, K19, or K22 compound were added to each well plated at a density of 1×10^5 cells/well and each well was incubated for 4 days. The incubated to cells were fixed for 10 min with 10% formalin and then re-fixed for 1 min with ethanol/acetone (1:1(v/v)). The cells were stained for TRAP (tartrate-resistant acid phosphatase). TRAP-positive cells having 3 or more nuclei were evaluated as multinucleated osteoclasts by observation under a microscope, and their IC50 values are given in the following table 1.

Assay [4] relates to BMM cells on dentine slices (bone resorption of osteoclasts). Put plainly: Pit formation assay on dentine slices. The conditions noted are these: 50 ng/ml RANKL, 30 ng/ml M-CSF and 10 μM K11, six days, compared to RANKL; FIGS. 3B and 3C. The procedure:
BMM cells were cultured for six days on dentine slices in 50 ng/ml RANKL and 30 ng/ml M-CSF, or 50 ng/ml RANKL 30 ng/ml and 10 μM K11 compound. After the cells on surfaces of dentine slice were washed, pits were stained with toluidin blue (J. T. Baker, UK, 1 μg/ml). Pits formed on the dentine slices by bone absorption were observed under a microscope and were analyzed.
as §1

The test system of assay [5] is NFATc1. Put plainly: Western blot analysis of NFATc1 expression. The following applies: 200 ng/ml RANKL following pretreatment with 10 μM K11 for 30 minutes; FIG. 4. The procedure:
as §2, §3

For orientation: IC50 means the concentration needed to halve the response being measured.

As for `COc1cc(C(=O)N(C(C)C)C(C)C)ccc1OCCCCCOc1nc2ccccc2s1` [Compound K11, 4-(5-(Benzo[d]thiazol-2-yloxy)pentyloxy)-N,N-diisopropyl-3-methoxybenzamide], the “expression levels of osteoclast-specific marker genes” value in assay [1] is “significantly decreased”. Also, the “RANKL-induced increase in the expression level of c-fos” value in assay [2] was “the effect of RANKL was reduced”. Further, in assay [3], the IC50 came to 1.56 µM. The “number of pits on dentine slices” value in assay [4] was “significant reduction”. Further, the “RANKL-induced increase in the expression level of NFATc1” value in assay [5] is given as “the effect of RANKL was reduced”.

`Clc1cccc(OCCCCCOc2nc3ccccc3s2)c1` [Compound K14, 2-(5-(3-chlorophenoxy)pentyloxy)benzo[d]thiazole]: in assay [3], the IC50 worked out at 7.77 µM.

`COc1ccccc1OCCCCCOc1nc2ccccc2s1` [Compound K17, 2-(5-(2-Methoxyphenoxy)pentyloxy)benzo[d]thiazole]: the IC50 in assay [3] was determined as 23.4 µM.

For the compound `Fc1ccccc1OCCCCCOc1nc2ccccc2s1` [Compound K18, 2-(5-(2-Fluorophenoxy)pentyloxy)benzo[d]thiazole], the IC50 in assay [3] was found to be 18.4 µM.

Regarding `c1ccc(OCCCCOc2nc3ccccc3s2)cc1` [Compound K19, 2-(4-Phenoxybutoxy)benzo[d]thiazole], the IC50 in assay [3] was found to be 17.7 µM.

Take `COc1cc(C(=O)N(C(C)C)C(C)C)ccc1OCCCCOc1nc2ccccc2s1` [Compound K22, 4-(4-(Benzo[d]thiazol-2-yloxy)butoxy)-N,N-diisopropyl-3-methoxy Benzamide]: the IC50 in assay [3] amounted to 2.2 µM.
